The text below walks through data of US9067926B2, “Fluoromethyl-5,6-dihydro-4H-[1,3]OXAZINES” (F. Hoffmann-La Roche AG, priority 2012, dated 2015).

Series [1] can be described thus: Detection of glutathione conjugates (GSH). The following applies: in vitro, relative to control. Also noted: key: NF = in vitro no adduct formation relative to control. The series is classed as in vitro ADME, human. The text has this: Detection of Glutathione Conjugates (GSH) The assay conditions for the detection of glutathione conjugates follow the procedure described by C. M. Dieckhaus et al. in Chem. Res. Toxicol. 2005, 18, 630-63.

For the next series, the target named is T1, CYP3A4 (Homo sapiens, UniProt P08684).
T1 construct: 0.2 mg/ml pooled human liver microsomes; from tissue; host or cells: pooled human liver microsomes
T1 sequence (P08684 whole entry): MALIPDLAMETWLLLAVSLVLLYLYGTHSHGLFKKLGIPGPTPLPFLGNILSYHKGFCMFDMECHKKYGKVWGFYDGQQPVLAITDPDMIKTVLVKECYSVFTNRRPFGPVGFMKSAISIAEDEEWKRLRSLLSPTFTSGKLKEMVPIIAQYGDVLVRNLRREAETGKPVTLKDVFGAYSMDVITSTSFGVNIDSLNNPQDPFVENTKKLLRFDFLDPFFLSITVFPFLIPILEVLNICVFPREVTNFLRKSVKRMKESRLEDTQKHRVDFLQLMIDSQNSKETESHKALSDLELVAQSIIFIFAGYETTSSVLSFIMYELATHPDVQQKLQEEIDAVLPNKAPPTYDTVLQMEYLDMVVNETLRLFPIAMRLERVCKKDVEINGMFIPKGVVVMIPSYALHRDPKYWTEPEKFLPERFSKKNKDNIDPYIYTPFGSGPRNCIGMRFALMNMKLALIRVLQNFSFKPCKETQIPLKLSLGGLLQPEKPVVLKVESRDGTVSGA
Put plainly: CYP inhibition assay, CYP3A4. Format: in vitro ADME. The following applies: pooled human liver microsomes, midazolam substrate; read-out: CYP IC50 3A4. The procedure: (§1) Inhibition of cytochromes P450 (CYPs) 2C9, 2D6 and 3A4 was assessed using human liver microsomes and CYP-selective substrate metabolism reactions. […] Quenched incubates were stored at −20° C. for at least 1 hour before centrifugation (20,000×g, 20 minutes). Supernatants were removed and diluted 1:1 with water prior to analysis using a RapidFire sample injector system and API4000 mass spectrometer. Peak areas for substrate, metabolite and stable-labelled metabolite standard were determined using MS/MS. The peak area ratios between the metabolite generated by the enzymatic reaction and the internal standard were used in subsequent calculations. The percentage of (DMSO) control activity was calculated for each incubate and IC50 values estimated by non-linear regression. Sulfaphenazole, quinidine or ketoconazole were tested in each CYP2C9, CYP2D6 or CYP3A4 inhibition experiment, respectively, to ensure assay sensitivity and reproducibility.
Background: Liver microsomes are a subcellular fraction often used to study metabolism.

Another series has as its target T2, CYP2C9 (Homo sapiens, UniProt P11712).
T2 construct: 0.2 mg/ml pooled human liver microsomes; from tissue; host or cells: pooled human liver microsomes
The experiment in a line: CYP inhibition assay, CYP2C9. Format: in vitro ADME. The following applies: pooled human liver microsomes, diclofenac substrate; read-out: CYP IC50 2C9. The procedure:
as §1

In another series the target is T3, BACE1 (Homo sapiens, UniProt P56817).
T3 construct: endogenous in cells; host or cells: HEK293 APP cells
T3 sequence (P56817 46-501): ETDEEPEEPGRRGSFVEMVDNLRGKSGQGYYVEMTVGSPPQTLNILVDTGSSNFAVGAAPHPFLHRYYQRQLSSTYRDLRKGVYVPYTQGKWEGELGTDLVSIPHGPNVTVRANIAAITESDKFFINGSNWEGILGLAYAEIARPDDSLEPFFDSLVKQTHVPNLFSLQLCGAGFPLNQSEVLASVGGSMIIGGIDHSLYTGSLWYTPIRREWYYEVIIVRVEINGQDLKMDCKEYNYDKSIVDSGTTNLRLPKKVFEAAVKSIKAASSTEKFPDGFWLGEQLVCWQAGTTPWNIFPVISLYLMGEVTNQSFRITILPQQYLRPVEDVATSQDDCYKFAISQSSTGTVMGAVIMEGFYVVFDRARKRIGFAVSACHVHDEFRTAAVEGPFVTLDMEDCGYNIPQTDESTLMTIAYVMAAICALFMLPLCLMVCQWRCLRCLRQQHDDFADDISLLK
Put plainly: Cellular Aβ-lowering assay (Abeta 40 AlphaLISA). The note with it: HEK293 APP cells, 18-20 hrs incubation, Aβ 40 in culture supernatant; read-out: BACE1 cell act. Aβ40 IC50. Format: cell-based. As for the experimental part:
Cellular Aβ-Lowering Assay:
The Abeta 40 AlphaLISA Assay can be used. The HEK293 APP cells were seeded in 96 well Microtiter plates in cell culture medium (Iscove's, plus 10% (vv) fetal bovine serum, penicillinstreptomycin) to about 80% confluency and the compounds were added at a 3× concentration in 13 volume of culture medium (final DMSO concentration was kept at 1% vv). After 18-20 hrs incubation at 37° C. and 5% CO2 in a humidified incubator, the culture supernatants were harvested for the determination of Aβ 40 concentrations using Perkin-Elmer Human Amyloid beta 1-40 (high specificity) Kit (Cat# AL275C).
Levels of Aβ 40 in the culture supernatants were calculated as percentage of maximum signal (cells treated with 1% DMSO without inhibitor). The IC50 values were calculated using the Excel XLfit software.

Series [2] addresses T4, cathepsin D (from human liver) (Homo sapiens, UniProt P07339).
T4 construct: cathepsin D (from human liver, Calbiochem) diluted in assay buffer; purchased Calbiochem; host or cells: human liver
Put plainly: Cathepsin D fluorescent substrate kinetic assay. Format: biochemical. The following applies: pH 5.5. The text has this:
(§2) Cathepsin D and Cathepsin E Fluorescent Substrate Kinetic Assays
(§3) The MR121 fluorescence assays described below are based on the fact that MR121 forms a non-fluorescent ground state complex with tryptophan. In solution this formation occurs at millimolar concentrations of tryptophan. The mechanism can be used to design a generic biochemical assay for proteases. […] In absence of protease activity, the substrates remain intact and the MR121 fluorescence is reduced by the high local Trp-concentration. If the substrates are cleaved by the enzymes the MR121 fluorescence is recovered.
(§4) The fluorescent substrate cathepsin D and cathepsin E kinetic assays were performed at room temperature in 384-well microtiter plates (black with clear flat bottom, non binding surface plates from Corning) in a final volume of 51 μl. The test compounds were serially diluted in DMSO (15 concentrations, 1/3 dilution steps) and 1 μl of diluted compounds were mixed for 10 min with 40 μl of cathepsin D (from human liver, Calbiochem) diluted in assay buffer (100 mM sodium acetate, 0.05% BSA, pH 5.5; final concentration: 200 nM) or with 40 μl of recombinant human cathepsin E (R&D Systems) diluted in assay buffer (100 mM sodium acetate, 0.05% BSA, pH 4.5; final concentration: 0.01 nM). […] The slope in the linear range of the kinetic was calculated and the IC50 of the test compounds were determined using a four parameter equation for curve fitting.

The target of another series is hERG (Homo sapiens, UniProt Q12809). Put plainly: hERG current measurement (automated patch clamp). Format: cell-based. The procedure: The hERG current measurement was performed at an automated patch clamp system following the procedure described in R. E. Martin et al. in Bio org.
Sequence of hERG (Q12809 whole entry): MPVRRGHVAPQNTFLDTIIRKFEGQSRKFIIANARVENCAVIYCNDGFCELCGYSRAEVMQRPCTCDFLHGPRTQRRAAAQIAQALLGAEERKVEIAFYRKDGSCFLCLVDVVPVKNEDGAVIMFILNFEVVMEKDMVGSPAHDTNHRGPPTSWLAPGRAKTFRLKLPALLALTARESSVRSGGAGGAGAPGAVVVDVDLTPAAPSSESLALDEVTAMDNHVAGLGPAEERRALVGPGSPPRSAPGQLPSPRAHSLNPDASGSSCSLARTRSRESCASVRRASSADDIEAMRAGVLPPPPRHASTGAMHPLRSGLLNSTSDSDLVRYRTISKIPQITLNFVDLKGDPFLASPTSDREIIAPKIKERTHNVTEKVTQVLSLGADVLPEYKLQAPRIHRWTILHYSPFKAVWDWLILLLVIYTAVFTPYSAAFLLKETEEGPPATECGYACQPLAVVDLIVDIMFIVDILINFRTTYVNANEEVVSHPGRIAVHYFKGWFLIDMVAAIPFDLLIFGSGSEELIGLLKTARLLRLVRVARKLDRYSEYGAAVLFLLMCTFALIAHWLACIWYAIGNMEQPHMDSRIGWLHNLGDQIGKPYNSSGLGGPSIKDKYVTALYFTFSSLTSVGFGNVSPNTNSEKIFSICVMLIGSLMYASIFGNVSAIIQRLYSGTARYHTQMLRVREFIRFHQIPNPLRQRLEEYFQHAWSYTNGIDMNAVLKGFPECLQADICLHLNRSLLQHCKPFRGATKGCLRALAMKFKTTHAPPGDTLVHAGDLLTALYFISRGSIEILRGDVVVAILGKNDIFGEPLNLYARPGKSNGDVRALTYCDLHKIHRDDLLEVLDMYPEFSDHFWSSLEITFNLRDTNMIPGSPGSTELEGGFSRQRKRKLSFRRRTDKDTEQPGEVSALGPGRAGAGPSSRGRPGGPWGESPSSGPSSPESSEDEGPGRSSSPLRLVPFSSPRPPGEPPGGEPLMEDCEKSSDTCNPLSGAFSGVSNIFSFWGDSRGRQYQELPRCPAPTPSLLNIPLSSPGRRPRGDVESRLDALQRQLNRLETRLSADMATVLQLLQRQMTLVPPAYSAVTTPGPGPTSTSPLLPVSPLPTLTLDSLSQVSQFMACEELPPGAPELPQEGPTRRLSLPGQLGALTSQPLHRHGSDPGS
Series [3] has as its target T5, recombinant human cathepsin E (Homo sapiens, UniProt P14091).
T5 construct: purchased R&D Systems
T5 sequence (P14091 54-396): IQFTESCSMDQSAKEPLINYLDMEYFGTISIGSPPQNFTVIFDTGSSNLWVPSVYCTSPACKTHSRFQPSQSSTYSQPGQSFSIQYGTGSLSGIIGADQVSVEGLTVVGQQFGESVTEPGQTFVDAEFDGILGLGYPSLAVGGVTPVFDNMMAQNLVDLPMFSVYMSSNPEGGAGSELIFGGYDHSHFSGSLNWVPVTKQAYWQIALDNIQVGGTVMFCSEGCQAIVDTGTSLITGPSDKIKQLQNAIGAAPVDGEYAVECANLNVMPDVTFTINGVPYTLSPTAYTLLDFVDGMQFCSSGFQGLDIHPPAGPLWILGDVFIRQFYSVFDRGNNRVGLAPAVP
The experiment in a line: Cathepsin E fluorescent substrate kinetic assay. Format: biochemical. The note with it: pH 4.5.
From the text: as §2, §3, §4

T2 sequence (P11712 whole entry): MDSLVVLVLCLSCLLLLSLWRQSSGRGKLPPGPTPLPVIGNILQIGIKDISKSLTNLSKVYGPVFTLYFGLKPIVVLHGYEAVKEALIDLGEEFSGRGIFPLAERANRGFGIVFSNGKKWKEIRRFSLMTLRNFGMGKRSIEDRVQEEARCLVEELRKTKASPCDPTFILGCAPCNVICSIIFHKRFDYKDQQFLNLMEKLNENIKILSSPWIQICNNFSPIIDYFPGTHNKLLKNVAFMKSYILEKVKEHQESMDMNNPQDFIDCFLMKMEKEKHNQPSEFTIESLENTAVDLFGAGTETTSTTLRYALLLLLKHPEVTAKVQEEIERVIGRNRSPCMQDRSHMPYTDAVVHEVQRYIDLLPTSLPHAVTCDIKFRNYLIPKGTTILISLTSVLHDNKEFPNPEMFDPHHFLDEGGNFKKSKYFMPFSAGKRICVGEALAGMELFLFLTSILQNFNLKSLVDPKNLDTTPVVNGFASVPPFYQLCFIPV
T4 sequence (P07339 65-412): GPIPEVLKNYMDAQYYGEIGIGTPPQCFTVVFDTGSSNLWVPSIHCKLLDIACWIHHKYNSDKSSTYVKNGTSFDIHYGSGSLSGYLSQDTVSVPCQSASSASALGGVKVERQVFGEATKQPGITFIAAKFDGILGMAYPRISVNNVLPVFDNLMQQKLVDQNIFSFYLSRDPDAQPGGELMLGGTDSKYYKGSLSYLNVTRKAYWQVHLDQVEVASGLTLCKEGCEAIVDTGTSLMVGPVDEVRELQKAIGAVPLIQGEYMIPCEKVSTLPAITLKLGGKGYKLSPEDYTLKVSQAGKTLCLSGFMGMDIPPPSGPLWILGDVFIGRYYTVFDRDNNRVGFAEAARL

As for `C[C@@]1(c2cc(NC(=O)c3ccc(OCF)cn3)ccc2F)C[C@@H](C(F)(F)F)OC(N)=N1` [Example 11, N-(3-((4S,6S)-2-Amino-4-methyl-6-(trifluoromethyl)-5,6-dihydro-4H-1,3-oxazin-4-yl)-4-fluorophenyl)-5-(fluoromethoxy)picolinamide], in series [1], the “GSH human (glutathione adduct formation)” value is listed as “NF”. In addition, the IC50 (in general, the midpoint of a concentration-inhibition curve) at CYP3A4 was more than 50 µM; on CYP2C9, more than 50 µM; on BACE1 it was 0.004 µM; in series [2], more than 200 µM; in series [3], more than 200 µM. In addition, at hERG, the “hERG Inhibition @ 10 μM” value is 26.
On to `NC1=N[C@](CF)(c2cc(NC(=O)c3ccc(OCF)cn3)ccc2F)C[C@@H](C(F)(F)F)O1` [Example 35, N-(3-((4S,6S)-2-Amino-4-(fluoromethyl)-6-(trifluoromethyl)-5,6-dihydro-4H-1,3-oxazin-4-yl)-4-fluorophenyl)-5-(fluoromethoxy)picolinamide], for which the “GSH human (glutathione adduct formation)” value in series [1] is “NF”. Further, the IC50 at CYP3A4 was more than 50 µM; at CYP2C9, 33 µM; on BACE1, 0.019 µM; in series [2], more than 200 µM; in series [3], more than 200 µM. Moreover, the “hERG Inhibition @ 10 μM” value on hERG is recorded as 26.
For the compound `C[C@@]1(c2cc(NC(=O)c3ccc(Cl)cn3)ccc2F)C[C@@H](C(F)(F)F)OC(N)=N1` [Example 2, N-(3-((4S,6S)-2-amino-4-methyl-6-(trifluoromethyl)-5,6-dihydro-4H-1,3-oxazin-4-yl)-4-fluorophenyl)-5-chloropicolinamide], the “GSH human (glutathione adduct formation)” value in series [1] was “NF”. Moreover, the IC50 was more than 50 µM on CYP3A4; more than 50 µM at CYP2C9; 0.005 µM at BACE1; more than 200 µM in series [2]; more than 200 µM in series [3]. Moreover, the “hERG Inhibition @ 10 μM” value at hERG turned out to be 84.
As for `CC#CCOc1cnc(C(=O)Nc2ccc(F)c([C@]3(C)C[C@@H](C(F)(F)F)OC(N)=N3)c2)cn1` [Example 22, N-(3-((4S,6S)-2-Amino-4-methyl-6-(trifluoromethyl)-5,6-dihydro-4H-1,3-oxazin-4-yl)-4-fluorophenyl)-5-(but-2-ynyloxy)pyrazine-2-carboxamide], the “GSH human (glutathione adduct formation)” value in series [1] was “NF”. Further, the IC50 on CYP3A4 was more than 50 µM; on CYP2C9 it was 33 µM; at BACE1 it was 0.0002 µM; in series [2] it was 179 µM; in series [3] it was more than 200 µM.
